Reference: patent US10759766B2, “Certain chemical entities, compositions, and methods” (NeuPharma, Inc., priority 2011, dated 2020)

Assays:
A549 cells = assay: Inhibition of cancer cell growth, MTT assay, A549; type: cell-based; details: Homo sapiens, A549, 72 h exposure
In short: (§1)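 Cells grown in RPMI 1640 with 10% FBS were seeded at about 4000 cells/well, left 24 h, then exposed to compound for 72 h (1% DMSO final). MTT absorbance at 570 nm was compared with viable cells at time of addition to give growth inhibition; IC50 from concentration–inhibition plots, triplicates.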

A375 cells = assay: Inhibition of cancer cell growth, MTT assay, A375; type: cell-based; details: Homo sapiens, A-375, 72 h exposure
In short: as §1

BRAF V600E = BRAF V600E (Homo sapiens (Human), UniProt P15056, V600E); assay: Z′-LYTE kinase inhibition assay (Invitrogen), BRAF V600E; type: biochemical; details: 1 μM compound, Z′-LYTE method; read-out: % inhibition at 1 μM against BRAF V600E
BRAF V600E, sequence (P15056 whole entry V600E): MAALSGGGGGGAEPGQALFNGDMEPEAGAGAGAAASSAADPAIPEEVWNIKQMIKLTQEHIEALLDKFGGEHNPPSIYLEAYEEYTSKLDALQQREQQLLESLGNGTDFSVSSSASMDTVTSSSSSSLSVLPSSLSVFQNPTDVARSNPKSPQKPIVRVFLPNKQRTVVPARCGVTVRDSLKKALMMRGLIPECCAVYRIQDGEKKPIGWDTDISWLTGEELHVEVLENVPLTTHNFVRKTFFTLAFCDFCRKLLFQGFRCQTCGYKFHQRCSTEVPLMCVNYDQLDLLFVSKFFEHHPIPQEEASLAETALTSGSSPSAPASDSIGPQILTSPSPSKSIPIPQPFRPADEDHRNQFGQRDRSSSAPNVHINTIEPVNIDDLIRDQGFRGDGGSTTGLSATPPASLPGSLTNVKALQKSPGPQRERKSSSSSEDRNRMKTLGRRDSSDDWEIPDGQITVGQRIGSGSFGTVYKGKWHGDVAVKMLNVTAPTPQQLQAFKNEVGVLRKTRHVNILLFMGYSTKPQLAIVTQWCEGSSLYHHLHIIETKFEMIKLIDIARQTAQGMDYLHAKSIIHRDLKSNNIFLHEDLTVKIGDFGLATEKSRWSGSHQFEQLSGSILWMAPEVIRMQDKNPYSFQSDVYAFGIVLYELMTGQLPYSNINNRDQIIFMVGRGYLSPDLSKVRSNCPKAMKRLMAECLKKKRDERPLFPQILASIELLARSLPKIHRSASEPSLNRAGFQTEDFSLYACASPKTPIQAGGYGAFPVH
In short: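 FRET-based Z′-LYTE peptide phosphorylation format in 50 mM HEPES pH 7.5, 0.01% BRIJ-35, 10 mM MgCl2, 1 mM EGTA with ATP. Kinase reaction 60 min at room temperature, then protease development step 60 min at room temperature before fluorescence read. IC50 from compound concentration versus percent inhibition.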

KDR (VEGFR2) = KDR (VEGFR2) (Homo sapiens (Human), UniProt P35968); assay: Z′-LYTE kinase inhibition assay (Invitrogen), KDR; type: biochemical; details: Z′-LYTE method; for inhibition at 1 µM: 1 μM compound, read-out: % inhibition at 1 μM against KDR
KDR (VEGFR2), sequence (P35968 20-1356): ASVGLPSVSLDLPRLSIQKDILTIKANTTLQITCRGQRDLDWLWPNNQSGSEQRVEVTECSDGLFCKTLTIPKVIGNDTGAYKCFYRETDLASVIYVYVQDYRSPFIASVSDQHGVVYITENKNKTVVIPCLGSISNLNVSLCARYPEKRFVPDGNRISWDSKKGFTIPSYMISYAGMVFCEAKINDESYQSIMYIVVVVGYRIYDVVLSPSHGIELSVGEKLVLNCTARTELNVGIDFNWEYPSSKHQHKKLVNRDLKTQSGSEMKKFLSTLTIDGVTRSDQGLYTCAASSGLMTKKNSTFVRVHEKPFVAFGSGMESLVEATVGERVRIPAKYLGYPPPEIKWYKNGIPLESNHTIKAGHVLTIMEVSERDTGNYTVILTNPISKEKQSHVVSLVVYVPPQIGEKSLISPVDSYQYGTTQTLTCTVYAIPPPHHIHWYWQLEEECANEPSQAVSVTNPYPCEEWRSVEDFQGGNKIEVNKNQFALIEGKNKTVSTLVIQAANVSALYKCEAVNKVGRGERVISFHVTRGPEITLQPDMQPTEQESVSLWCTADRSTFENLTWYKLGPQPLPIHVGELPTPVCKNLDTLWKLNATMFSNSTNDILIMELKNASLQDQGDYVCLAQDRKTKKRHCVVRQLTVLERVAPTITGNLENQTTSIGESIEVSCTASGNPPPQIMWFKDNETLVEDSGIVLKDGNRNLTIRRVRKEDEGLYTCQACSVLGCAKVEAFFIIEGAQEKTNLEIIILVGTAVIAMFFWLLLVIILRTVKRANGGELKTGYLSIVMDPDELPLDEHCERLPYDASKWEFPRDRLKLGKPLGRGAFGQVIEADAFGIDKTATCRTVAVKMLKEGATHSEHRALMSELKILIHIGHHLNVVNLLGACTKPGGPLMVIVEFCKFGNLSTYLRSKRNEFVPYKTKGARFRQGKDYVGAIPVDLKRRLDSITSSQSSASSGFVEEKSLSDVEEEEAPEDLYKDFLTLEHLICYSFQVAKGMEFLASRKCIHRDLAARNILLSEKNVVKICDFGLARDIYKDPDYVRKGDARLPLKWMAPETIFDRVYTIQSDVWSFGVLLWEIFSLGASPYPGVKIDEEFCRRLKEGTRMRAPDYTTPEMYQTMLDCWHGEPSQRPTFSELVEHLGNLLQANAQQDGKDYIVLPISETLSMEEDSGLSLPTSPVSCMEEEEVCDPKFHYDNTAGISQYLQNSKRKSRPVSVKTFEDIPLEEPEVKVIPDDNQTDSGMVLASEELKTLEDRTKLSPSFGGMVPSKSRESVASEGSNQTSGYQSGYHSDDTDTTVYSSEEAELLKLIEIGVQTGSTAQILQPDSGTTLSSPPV
In short: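 Z′-LYTE FRET assay: 10 μL reactions with 0.5–11.7 ng KDR and 2 μM Tyr 01 peptide in 50 mM HEPES pH 7.5, 10 mM MgCl2, 1 mM EGTA, 0.01% BRIJ-35, 1 h at room temperature. Development Reagent B (1:256) added for 60 min, fluorescence read; IC50 from concentration–inhibition curves.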

IC50 (A549 cells)	IC50 (A375 cells)	inhibition at 1 µM (BRAF V600E)	inhibition at 1 µM (KDR (VEGFR2))	IC50 (KDR (VEGFR2); read-out: IC50 against KDR)	Structure (SMILES)
2 to 5 µM	< 1 µM	> 89%	> 89%	< 100 nM	O=C(Nc1ccc(F)c(C(=O)c2ccc3ncc(N4CCNCC4)nc3c2)c1)Nc1ccc(Cl)c(C(F)(F)F)c1 [Compound C086]
> 5 µM	1 to 5 µM	> 89%	> 89%	–	NCCNc1cnc2ccc(C(=O)c3cc(NC(=O)Nc4cccc(F)c4)ccc3F)cc2n1 [Compound C088, 1-(3-(3-((2-aminoethyl)amino)quinoxaline-6-carbonyl)-4-fluorophenyl)-3-(3-fluorophenyl)urea]
> 5 µM	1 to 5 µM	> 89%	> 89%	–	NCCNc1cnc2ccc(C(=O)c3cc(NC(=O)Nc4ccc(F)cc4)ccc3F)cc2n1 [Compound C089, 1-(3-(3-((2-aminoethyl)amino)quinoxaline-6-carbonyl)-4-fluorophenyl)-3-(4-fluorophenyl)urea]
> 5 µM	1 to 5 µM	> 89%	> 89%	–	NCCNc1cnc2ccc(C(=O)c3cc(NC(=O)Nc4ccc(F)c(F)c4)ccc3F)cc2n1 [Compound C091, 1-(3-(3-((2-aminoethyl)amino)quinoxaline-6-carbonyl)-4-fluorophenyl)-3-(3,4-difluorophenyl)urea]
> 5 µM	1 to 5 µM	> 89%	70 to 89%	–	NCCNc1cnc2ccc(C(=O)c3cc(NC(=O)Nc4cc(F)cc(F)c4)ccc3F)cc2n1 [Compound C092, 1-(3-(3-((2-aminoethyl)amino)quinoxaline-6-carbonyl)-4-fluorophenyl)-3-(3,5-difluorophenyl)urea]
> 5 µM	> 5 µM	70 to 89%	< 70%	–	O=C(Nc1ccc(F)c(C(=O)c2ccc3nccnc3c2)c1F)c1cccc(F)c1 [Compound C113, N-(2,4-difluoro-3-(quinoxaline-6-carbonyl)phenyl)-3-fluorobenzamide]
> 5 µM	> 5 µM	> 89%	70 to 89%	–	O=C(Nc1ccc(F)c(C(=O)c2ccc3nccnc3c2)c1)c1cccc(F)c1 [Compound C115, 3-fluoro-N-(4-fluoro-3-(quinoxaline-6-carbonyl)phenyl)benzamide]
2 to 5 µM	1 to 5 µM	> 89%	70 to 89%	–	O=C(Nc1ccc(F)c(C(=O)c2ccc3nccnc3c2)c1)c1ccc(Cl)c(C(F)(F)F)c1 [Compound C117, 4-chloro-N-(4-fluoro-3-(quinoxaline-6-carbonyl)phenyl)-3-(trifluoromethyl)benzamide]
2 to 5 µM	1 to 5 µM	> 89%	70 to 89%	–	O=C(Nc1cccc(C(=O)c2ccc3ncc(N4CCOCC4)nc3c2)c1)c1cccc(F)c1 [Compound C118, 3-fluoro-N-(3-(3-morpholinoquinoxaline-6-carbonyl)phenyl)benzamide]
2 to 5 µM	1 to 5 µM	> 89%	70 to 89%	–	O=C(Nc1cccc(C(=O)c2ccc3ncc(N4CCOCC4)nc3c2)c1)c1ccc(Cl)c(C(F)(F)F)c1 [Compound C120, 4-chloro-N-(3-(3-morpholinoquinoxaline-6-carbonyl)phenyl)-3-(trifluoromethyl)benzamide]
> 5 µM	> 5 µM	70 to 89%	70 to 89%	–	O=C(Nc1cccc(C(=O)c2ccc3ncc(N4CCCC4)nc3c2)c1)c1ccc(Cl)c(C(F)(F)F)c1 [Compound C123, 4-chloro-N-(3-(3-(pyrrolidin-1-yl)quinoxaline-6-carbonyl)phenyl)-3-(trifluoromethyl)benzamide]
> 5 µM	> 5 µM	< 70%	< 70%	–	O=C(Nc1cc(F)cc(C(=O)c2ccc3nccnc3c2)c1)c1cccc(F)c1 [Compound C125, 3-fluoro-N-(3-fluoro-5-(quinoxaline-6-carbonyl)phenyl)benzamide]
> 5 µM	1 to 5 µM	> 89%	< 70%	–	O=C(Nc1cc(F)cc(C(=O)c2ccc3nccnc3c2)c1)c1cccc(C(F)(F)F)c1 [Compound C126, N-(3-fluoro-5-(quinoxaline-6-carbonyl)phenyl)-3-(trifluoromethyl)benzamide]
> 5 µM	> 5 µM	70 to 89%	< 70%	–	O=C(Nc1cc(F)cc(C(=O)c2ccc3nccnc3c2)c1)c1ccc(Cl)c(C(F)(F)F)c1 [Compound C127, 4-chloro-N-(3-fluoro-5-(quinoxaline-6-carbonyl)phenyl)-3-(trifluoromethyl)benzamide]
> 5 µM	1 to 5 µM	> 89%	70 to 89%	–	O=C(Nc1cc(F)c(F)c(C(=O)c2ccc3nccnc3c2)c1)c1cccc(C(F)(F)F)c1 [Compound C128, N-(3,4-difluoro-5-(quinoxaline-6-carbonyl)phenyl)-3-(trifluoromethyl)benzamide]
> 5 µM	1 to 5 µM	> 89%	70 to 89%	–	O=C(Nc1cc(F)c(F)c(C(=O)c2ccc3nccnc3c2)c1)c1ccc(Cl)c(C(F)(F)F)c1 [Compound C129, 4-chloro-N-(3,4-difluoro-5-(quinoxaline-6-carbonyl)phenyl)-3-(trifluoromethyl)benzamide]
< 2 µM	1 to 5 µM	> 89%	> 89%	–	Cn1cc(-c2cnc3ccc(C(=O)c4cccc(NC(=O)c5ccc(Cl)c(C(F)(F)F)c5)c4)cc3n2)cn1 [Compound C130, 4-chloro-N-(3-(3-(1-methyl-1H-pyrazol-4-yl)quinoxaline-6-carbonyl)phenyl)-3-(trifluoromethyl)benzamide]
> 5 µM	> 5 µM	> 89%	< 70%	–	O=C(Nc1cc(F)c(F)c(C(=O)c2ccc3nccnc3c2)c1)c1cccc(F)c1 [Compound C131, N-(3,4-difluoro-5-(quinoxaline-6-carbonyl)phenyl)-3-fluorobenzamide]
> 5 µM	1 to 5 µM	70 to 89%	< 70%	–	O=C(Nc1cc(F)cc(C(=O)c2ccc3ncc(N4CCOCC4)nc3c2)c1)c1ccc(Cl)c(C(F)(F)F)c1 [Compound C135, 4-chloro-N-(3-fluoro-5-(3-morpholinoquinoxaline-6-carbonyl)phenyl)-3-(trifluoromethyl)benzamide]
> 5 µM	1 to 5 µM	> 89%	> 89%	–	O=C(Nc1ccc(F)c(C(=O)c2ccc3ncc(N4CCOCC4)nc3c2)c1)c1cccc(F)c1 [Compound C136]
> 5 µM	> 5 µM	70 to 89%	70 to 89%	–	O=C(Nc1cc(F)c(F)c(C(=O)c2ccc3ncc(N4CCOCC4)nc3c2)c1F)c1cccc(F)c1 [Compound C137, 3-fluoro-N-(2,4,5-trifluoro-3-(3-morpholinoquinoxaline-6-carbonyl)phenyl)benzamide]
> 5 µM	1 to 5 µM	70 to 89%	> 89%	–	O=C(Nc1cc(F)c(F)c(C(=O)c2ccc3ncc(N4CCOCC4)nc3c2)c1F)c1cccc(C(F)(F)F)c1 [Compound C138, N-(2,4,5-trifluoro-3-(3-morpholinoquinoxaline-6-carbonyl)phenyl)-3-(trifluoromethyl)benzamide]
> 5 µM	> 5 µM	< 70%	< 70%	–	O=C(Nc1cc(F)c(F)c(C(=O)c2ccc3ncc(N4CCOCC4)nc3c2)c1F)c1ccc(Cl)c(C(F)(F)F)c1 [Compound C139]
> 5 µM	> 5 µM	70 to 89%	< 70%	–	O=C(Nc1cc(F)c(F)c(C(=O)c2ccc3nccnc3c2)c1F)c1ccc(Cl)c(C(F)(F)F)c1 [Compound C140, 4-chloro-N-(2,4,5-trifluoro-3-(quinoxaline-6-carbonyl)phenyl)-3-(trifluoromethyl)benzamide]
2 to 5 µM	1 to 5 µM	70 to 89%	70 to 89%	–	O=C(Nc1cc(F)cc(C(=O)c2ccc3ncc(N4CCOCC4)nc3c2)c1)c1cccc(F)c1 [Compound C142, 3-fluoro-N-(3-fluoro-5-(3-morpholinoquinoxaline-6-carbonyl)phenyl)benzamide]
